Assay results: patent US20030203963A1, “Antimicrobial agent” (priority 2001, published 2003)

How the values were obtained:
Lb. sake A10 = experiment: Test in cooked sausage meat slurry; type: cell-based, Lactobacillus sake; details: for Effect on growth: cooked sausage meat slurry at 8° C., pH 6.2, TSM010605
Source text: 500 g of bologna sausage meat mixture was mixed with 500 g Brain Heart Infusion broth (BHIB) to make a homogeneous slurry. The bologna sausage meat mix comprised (g per kg): lean beef 320; lean pork 202; lard 250; water 40; glucose 5; starch 155; spice mix 3.75; sodium glutamate 0.5; sodium erythorbate 0.545; sodium di-phosphate 3; NaCl 20; sodium nitrite 0.15. 200 g samples of the meat slurry were autoclaved. While the meat was still warm it was re-mixed thoroughly. When the meat had cooled it was inoculated with 2 ml of 10^5 cfu/ml spore or cell suspension, and re-mixed again. Each inoculated meat sample was divided into 3×50 g samples, and 1 ml of either SDW, 2.5% or 5% APP solution (batch number APP 20010215) was added to prepare meat samples containing 0, 500 and 1000 ppm APP. The meat slurry was again shaken thoroughly to ensure even mixing, an initial viable count was taken and the samples incubated at 8° C. Samples were taken at twice-weekly intervals. The pH of the sausage meat slurry was 6.2.

B. cereus 204 [1] = experiment: Test in cooked minced beef slurry; type: cell-based, Bacillus cereus; details: minced beef slurry at 8° C., pH 6.24, TCM010619
Method: (§1) 1 kg of minced beef, purchased from the local butcher, was mixed with 1 litre of BHI. 200 g portion of this meat slurry was autoclaved. When the meat had cooled, the pH was recorded (pH 6.24), and each pot was inoculated with 2.0 ml of 10^5 spores or cells and the meat re-mixed thoroughly. Each inoculated 200 g pot was distributed as 3×50 g portions. To each pot 1 ml of SDW, 5% or 10% APP (Batch No. APP20010215) was added, and the meat was again mixed thoroughly. An initial viable count was performed, the meat was incubated at 8° C. and sampled twice weekly. The pH of the cooked minced beef slurry was 6.24.

B. cereus 3.046 = experiment: Bioscreen growth inhibition test; type: cell-based, Bacillus cereus; details: BS010510, 24 h at 30° C., APP20010213
Method: (§2) For broth cultures and Bioscreen testing most bacteria were grown in Brain Heart Infusion (BHI, Oxoid, pH 7.4). Lactobacillus sake A10 was grown in de Man, Rogosa, Sharpe medium ([…], Oxoid). Yeasts were grown in Sabouraud Liquid medium (SLM, Oxoid). Most bacteria were cultured at 30° C. Lactic acid bacteria were grown on solid medium in enriched CO2 atmosphere. Clostridium species were grown in Reinforced Clostridial Medium (RCM) at 37° C. anaerobically. Brochothrix thermosphacta fungi and yeasts were grown at 25° C. Fungi were cultured on Malt Extract Agar (MEA, Oxoid).
(§3) An automated Microbiology Reader Bioscreen C was used to measure growth curves of the strains in the presence and absence of APP. The Bioscreen C measures the development of turbidity (i.e. growth) kinetically by vertical photometry in 200 wells of a honeycomb microtitre plate, simultaneously. The system consists of a Bioscreen C analyser, which is an incubator and measurement unit, integrated with a PC, software (BioLink v 5.30), printer and a ‘Honeycomb 2’ cuvette multiwell plate. Growth curve data can be analysed within the BioLink software or exported to programs such as Excel.
(§4) Broth culture media were dispensed in 270 μl volumes into the wells as directed. Serial dilutions of a filter-sterilised APP stock solution were then dispensed into the same wells, as appropriate. The wells were inoculated with 30 μl of an appropriately diluted overnight broth culture or spore suspension, to give a final inoculum level of […]. The tests were incubated in the Bioscreen C for either 24 h at 30° C., or 72 h at 25° C. (depending on the micro-organism under investigation) with readings taken every 20 minutes after the trays were shaken. After the incubation period was complete the data were exported to Excel for analysis.

B. cereus 204 [2] = experiment: Bioscreen growth inhibition test; type: cell-based, Bacillus cereus; details: BS010411, 24 h at 30° C.
Method: as §2, §3, §4

B. cereus Campden = experiment: Bioscreen growth inhibition test; type: cell-based, Bacillus cereus; details: BS010411, 24 h at 30° C.
Method: as §2, §3, §4

Salm Typhimurium S29 = experiment: Test in cooked minced chicken slurry; type: cell-based, Salmonella Typhimurium; details: for Total inhibition for: minced chicken slurry at 8° C., pH 6.42, TCC010704
Method: 1 kg of minced chicken (mainly lean meat) was purchased from the local butcher. This was mixed with 1 litre of BHI, mixed and dispensed as 100 g samples prior to autoclaving. When still warm, the meat was re-mixed thoroughly. When cooked, the meat was inoculated with 1 ml of 10^5 spores or cells (from an overnight broth), and re-mixed. The samples were then divided into 3×25 g portions, to which 0.5 ml of filter-sterilised APP20010215 was added (as 5% or 10% stock solutions) or water. An initial viable count was taken, and the samples then incubated at 8° C. and tested twice weekly. The pH of the chicken slurry was 6.42.

Ps. fluorescens 3756 = experiment: Test in cooked minced beef slurry; type: cell-based, Pseudomonas fluorescens
Method: as §1

S cerevisiae H78 = experiment: Bioscreen growth inhibition test; type: cell-based, Saccharomyces cerevisiae; details: APP 213, BS010420, 72 h/25° C.
Method: as §2, §3, §4

S. cerevisiae ATCC9763 = experiment: Bioscreen growth inhibition test; type: cell-based, Saccharomyces cerevisiae; details: APP 213, BS010420, 72 h/25° C.
Method: as §2, §3, §4

[3] = test system: Br. thermosphacta CRA78883; experiment: Test in cooked minced beef slurry; type: cell-based, Brochothrix thermosphacta; details: 2000 ppm; minced beef slurry at 8° C., pH 6.24, TCM010619
Method: as §1

O=C1CC(CO)OC=C1O (centres unmarked) [APP, Ascopyrone P]
Effect on growth (Lb. sake A10; 500 ppm): No effect with 500 and 1000 ppm | Effect on growth (Lb. sake A10; 1000 ppm): No effect with 500 and 1000 ppm | No inhibition (effect on growth of target organism by APP) (Lb. sake A10; Cooked sausage meat slurry at 8° C. pH 6.2, (1000)): Lb. sake (1000) | Effect on growth (B. cereus 204 [1]; 1000 ppm): 1000 ppm extended lag phase. | Growth to 10^6 delayed by (B. cereus 204 [1]; 2000 ppm): 2000 ppm delayed growth to 10^6 by 7 d. | APP level causing significant inhibition (B. cereus 3.046): 2000 ppm | APP level causing total inhibition (B. cereus 3.046): 3000 ppm | APP level causing significant inhibition (B. cereus 204 [2]; APP20010213): 4000 ppm | APP level causing total inhibition (B. cereus 204 [2]; APP20010213): >4000 ppm | APP level causing significant inhibition (B. cereus 204 [2]; APP20010215): 2000 ppm | APP level causing total inhibition (B. cereus 204 [2]; APP20010215): 4000 ppm | APP level causing significant inhibition (B. cereus Campden; APP20010213): 2000 ppm | APP level causing total inhibition (B. cereus Campden; APP20010213): 4000 ppm | APP level causing significant inhibition (B. cereus Campden; APP20010215): 2000 ppm | APP level causing total inhibition (B. cereus Campden; APP20010215): >4000 ppm | Total inhibition for (Salm Typhimurium S29; 1000 ppm): Total inhibition by 1000 ppm for 25 d | Total inhibition for (Salm Typhimurium S29; 2000 ppm): Total inhibition by 2000 ppm for >40 d | Total inhibition (effect on growth of target organism by 2000 ppm APP) (Salm Typhimurium S29; Cooked minced chicken slurry at 8° C. pH 6.42): S. Typhimurium | Growth delayed by (Ps. fluorescens 3756; 1000 ppm, minced beef slurry at 8° C., pH 6.24, TCM010619): 1000 ppm delayed growth by 17 d | Total inhibition for (Ps. fluorescens 3756; 2000 ppm, minced beef slurry at 8° C., pH 6.24, TCM010619): Total inhibition by 2000 ppm for 27 d | Total inhibition (effect on growth of target organism by 2000 ppm APP) (Ps. fluorescens 3756; Cooked minced beef slurry at 8° C. pH 6.24): Ps. fluorescens | APP level causing significant inhibition (S cerevisiae H78): 4000 | APP level causing total inhibition (S cerevisiae H78): >4000 | APP level causing significant inhibition (S. cerevisiae ATCC9763): Enhanced growth | APP level causing total inhibition (S. cerevisiae ATCC9763): >4000 | Effect on growth [3]: No effect with 2000 ppm
